Entries after “also recorded” stand apart in the source; their conditions may differ.
Legend:
Type in all cases: in vivo, human
[1] = Tolerable infusion rate / infusion duration, Study 1; conditions: 500 mg in 500 ml saline, start 20 drops per minute for 15 minutes, then rate by participant comfort, mean ± SD
Method: (§1) Vials of 50 mg/ml of NR or NAD+ were prepared in 10 ml of sterile water by DCA Pharmacy (Franklin, Tennessee) by prescription, for research administration only, and maintained in refrigerated conditions until use. For participants who were randomized to the test group or to the active comparator group, the NR or NAD+ was added to 500 ml of normal saline (B Braun 0.9% sodium chloride injection USP, preservative free) prior to intravenous administration. Those randomly assigned to the saline group received 500 ml of normal saline. Participants that were randomly assigned to the oral arm were provided with 500 mg of NR which was taken with water.
(§2) In the first study, participants began the infusion at a rate of 20 drops per minute for the first 15 minutes to ensure safety and comfort. […] Participants were closely monitored for the duration of the infusion, and the infusion rate was decreased, as applicable, upon participant request.
(§3) Additional analyses were conducted using GraphPad Prism (Ver. 10.0.2). Statistical significance was determined as p<0.05, with comparisons of the test articles compared to saline or between group comparisons. […] Time in chair was analyzed for study 1 by a one-way ANOVA with multiple comparisons, study 2 was analyzed by unpaired t-test. The baseline variable of age was analyzed for differences by one way ANOVA with multiple comparisons for study.

[2] = Tolerable infusion rate / infusion duration, Study 2 (IV line fully open); conditions: males, rate decreased on request, mean (SD)
Excerpt: This was a 2-part study. The first study was a 4-arm randomized, placebo-controlled parallel trial. The 3 IV arms were double-blinded, while the 4th arm involved oral administration making it naturally unblinded. Participants were randomized at a 10:10:10:6 ratio to intravenous placebo (saline), NAD^+, NR, or oral NR (oral). The second study was a randomized parallel design trial with two arms for the purpose of evaluating the actual differences in infusion rates in real time. Participants were randomized at a 1:1 ratio to intravenous NR or NAD^+. […]
as §2, §3

[3] = Sleep Scale, pilot clinical study (Study 1); conditions: for Sleep Maintenance: possible scores 3-18; for Sleep Latency: possible scores 4-24; for Cognitive Effects / Daytime Sleepiness / Emotional Effects / Productivity / Sleep Inertia: possible scores 5-30
Method: (§4) The present randomized, double-blinded, placebo-controlled, pilot clinical study was initiated with the primary aim of investigating the safety, tolerability, and the blood NAD+-boosting efficacy of an acute, single dose of NR IV (500 mg, test), NAD+ IV (500 mg, active comparator), oral NR (500 mg, bridge), and saline IV (placebo control) in generally healthy adult participants. The study consisted of two parts; data from 37 and 16 participants in the first and second phases, respectively, were analyzed.
(§5) This was a 2-part study. The first study was a 4-arm randomized, placebo-controlled parallel trial. The 3 IV arms were double-blinded, while the 4th arm involved oral administration making it naturally unblinded. Participants were randomized at a 10:10:10:6 ratio to intravenous placebo (saline), NAD^+, NR, or oral NR (oral). The second study was a randomized parallel design trial with two arms for the purpose of evaluating the actual differences in infusion rates in real time. Participants were randomized at a 1:1 ratio to intravenous NR or NAD^+.
as §1
(§6) To assess vital signs and subdomains on the sleep and energy scales, between-groups comparisons were assessed using analysis of covariance (ANCOVA) with baseline scores as the covariate and a Bonferroni correction. Levene's test was used to check and confirm the assumption of homogeneity of variances.
(§7) Tables A-D below reflect mean scores for each group at days 7 and 14. An ANCOVA was used to identify statistical significant differences, using baseline scores as the covariate which helps to account for the natural variation in psychological measurements, increasing the power of the study.
For the sleep scale, the greatest improvements were seen on the scale of sleep latency, which refers to the ability to fall asleep at night, and sleep-related cognitive effects.

[4] = Vital signs post-intervention (Study 1); conditions: single 500 mg dose, mean (SD)
Method: as §4
(§8) The safety of the IV infusion was evaluated using a combination of endpoints, including tolerable infusion rate, total number of adverse effects, participant vital signs, a complete blood count (CBC), a comprehensive metabolic panel (CMP), glucose and insulin levels, and the participant's self-reported subjective experience.
as §6
For the first study, data from 37 patients were available for intent to treat analysis; for the second study, data from 16 patients were available for intent to treat analysis.

[5] = Hematology (complete blood count); conditions: for mean corpuscular volume (MCV): in fL (unit assumed)
Method: as §8
(§9) Between-groups comparisons of each outcome measured in the […] and CMP were evaluated using mixed between-within subjects ANOVA with the timepoint being the within subjects' factor and the group assignment as the between subjects factor. Mauchly's test of sphericity was used to confirm assumptions. Violations of the assumption of sphericity are addressed with the Greenhouse-Geisser correction.
(§10) Additional analyses were conducted using GraphPad Prism (Ver. 10.0.2). Statistical significance was determined as p<0.05, with comparisons of the test articles compared to saline or between group comparisons. 2way ANOVA with Tukey's multiple comparisons test with a single pooled variance was used to determine significance in hematology, clinical chemistry, and vitals. Time in chair was analyzed for study 1 by a one-way ANOVA with multiple comparisons, study 2 was analyzed by unpaired t-test. The baseline variable of age was analyzed for differences by one way ANOVA with multiple comparisons for study.

[6] = Patient subjective experience and adverse event monitoring
Method: as §8
Adverse event monitoring began on the first day of the study and continued for 14 days (study one) or 7 days (study two). Participants were instructed to notify the research staff of any new or unusual symptoms during the trial and open-ended questions during data collection solicited unexpected side effects.

[7] = Energy/Fatigue Scale, randomized placebo-controlled pilot clinical study (Study 1); conditions: for Mental Energy / Perceived Fatigue: possible scores 5-30; for General Energy / Motivation: possible scores 6-36; for Physical Energy: possible scores 7-42; for Emotional Energy: possible scores 8-48
Method: as §4, §5, §1, §6, §7
It is noted that the energy scale measures disruptions to energy levels; lower scores reflect greater levels of energy.

[8] = Clinical chemistry (comprehensive metabolic panel)
Method: as §8, §9, §10

[9] = 3 hours post infusion, mean ± SD
[10] = Energy/Fatigue Scale Day 7, mean score, lower = greater energy
[11] = Energy/Fatigue Scale Day 14, mean score, lower = greater energy

NC(=O)c1ccc[n+]([C@@H]2O[C@H](COP(=O)([O-])OP(=O)(O)OC[C@H]3O[C@@H](n4cnc5c(N)ncnc54)[C@H](O)[C@@H]3O)[C@@H](O)[C@H]2O)c1 [NAD+ IV, Nicotinamide Adenine Dinucleotide]
infusion intake, average [1]: 182.9 ± 55.93 min | average infusion rate (total infusion time) [2]: 98.88 (SD: 46.70) minutes | Sleep Maintenance ([3]; Sleep Scale Day 7, mean score): 8.88 | Sleep Latency ([3]; Sleep Scale Day 7, mean score): 11.63 | Cognitive Effects ([3]; Sleep Scale Day 7, mean score): 15.50 | Daytime Sleepiness ([3]; Sleep Scale Day 7, mean score): 17.63 | Emotional Effects ([3]; Sleep Scale Day 7, mean score): 15.75 | Productivity ([3]; Sleep Scale Day 7, mean score): 13.86 | Sleep Inertia ([3]; Sleep Scale Day 7, mean score): 17.38 | Sleep Maintenance ([3]; Sleep Scale Day 14, mean score): 8.25 | Sleep Latency ([3]; Sleep Scale Day 14, mean score): 10.75 | Cognitive Effects ([3]; Sleep Scale Day 14, mean score): 15.63 | Daytime Sleepiness ([3]; Sleep Scale Day 14, mean score): 16.88 | Emotional Effects ([3]; Sleep Scale Day 14, mean score): 16.38 | Productivity ([3]; Sleep Scale Day 14, mean score): 13.25 | Sleep Inertia ([3]; Sleep Scale Day 14, mean score): 16.00 | Post-intervention diastolic blood pressure [4]: 73.40 (SD: 13.15) mmHg | Post-intervention heart rate [4]: 68.40 (SD: 8.10) beats per minute | Post-intervention systolic blood pressure [4]: 117.20 (SD: 14.54) mmHg | White blood cell count [5, 9]: 6.990±2.386 Thousand/microliter | absolute neutrophils [5, 9]: 4724±2159 Cells/microliter | mean corpuscular volume (MCV) [5, 9]: 87.38±3.991 | mean corpuscular volume (MCV) ([5]; 24 hours post infusion, mean ± SD): 87.34±3.035 | elevations in white blood cells and neutrophils ([5]; baseline to three-hours post-infusion): clinically significant elevations in white blood cells and increases in absolute and percentage neutrophils | mean corpuscular volume (MCV) ([5]; baseline, mean ± SD): 88.43±3.772 | comfort level described by majority of patients ([6]; during IV infusion): low | patients having a bowel movement during the IV ([6]; fraction of patients, nursing staff report): Approximately half | sensations / adverse experiences reported during infusion ([6]; patient self-report, 500 mg IV): anxiety, headaches, nausea, and sudden urges to have a bowel movement or diarrhea; also recorded: nausea, headache, diarrhea, and muscle tightness | Mental Energy [7, 10]: 13.13 | Perceived Fatigue [7, 10]: 15.75 | General Energy [7, 10]: 20.63 | Motivation [7, 10]: 11.13 | Physical Energy ([7]; Energy/Fatigue Scale Day 7, mean score, lower scores = greater energy, single 500 mg dose): 19.63 | Emotional Energy [7, 10]: 31.75 | Mental Energy [7, 11]: 14.50 | Perceived Fatigue [7, 11]: 15.50 | General Energy [7, 11]: 20.13 | Motivation [7, 11]: 13.50 | Physical Energy [7, 11]: 18.50 | Emotional Energy [7, 11]: 29.63 | significant differences in bilirubin and AST (indicators of liver function) ([8]; 3- and 24-hour timepoints): not detected | change in globulin from baseline to 24 hours post infusion ([8]; Study 1, mean ± SD): 0.1300±0.1829 | estimated glomerular filtration rate change from baseline to 3 hours post infusion ([8]; Study 1, mean ± SD, not deemed clinically significant): 1.400±8.462
